The results in this text go back to ChEMBL document CHEMBL1139677, “DNA interstrand crosslinking agents: synthesis, DNA interactions, and cytotoxicity of dimeric achiral seco-amino-CBI and conjugates of achiral seco-amino-CBI with pyrrolobenzodiazepine (PBD)” (Bioorg Med Chem Lett, 2006).

pIC50: −log10 of the molar value. Active and inactive are the calls of the source. The calls are words filed in the database; no cut-off is given here.

For experiment [1], the system named is P815. Put plainly: Cytotoxicity against mouse P815 cells after 3 days. It counts as cell-based. Conditions: P815, 72 h.
Experiment [2] in a line: Induction of pBR322 DNA alkylation at 0.1 uM by thermally induced cleavage assay. The format is functional.
The subject of experiment [3] is P815. Kind of experiment: Cell cycle arrest in mouse P815 cells by accumulation at subG0 phase at 0.026 uM. The format is functional.
A short description of experiment [4]: Induction of supercoiled pBR322 DNA strand cleavage at 6.6 uM. The format is functional.
A short description of experiment [5]: Induction of linear pBR322 DNA interstrand crosslinking at 10 uM. The format is functional.
The nature of experiment [6]: Induction of pBR322 DNA alkylation at 1 uM by thermally induced cleavage assay. It counts as functional.
The nature of experiment [7]: Induction of pBR322 DNA alkylation at 10 uM by thermally induced cleavage assay. The format is functional.
The nature of experiment [8]: Induction of supercoiled pBR322 DNA strand cleavage. The format is functional.
A short description of experiment [9]: Induction of pBR322 DNA alkylation at 100 uM by thermally induced cleavage assay. The format is functional.
Experiment [10] is described as follows: Induction of linear pBR322 DNA interstrand crosslinking. It counts as functional.

The molecule `COc1cc2cc(C(=O)Nc3cc(N)c4ccccc4c3CCCl)[nH]c2c(OC)c1OC` [CENTANAMYCIN] had a pIC50 in the experiment on P815 [1] of 7.17. With `COc1c(O)c2c(c3cc(C(=O)N4CCc5c4c(O)c(OC)c4[nH]c(C(=O)N6C[C@H]7C[C@@]78C6=CC(=O)c6[nH]cc(C)c68)cc54)[nH]c13)CCN2C(N)=O`, the outcome in experiment [2] was Active. For the molecule `COc1cc2c(cc1OCCC(=O)Nc1ccc3oc(C(=O)Nc4cc(N)c5ccccc5c4CCCl)cc3c1)N=C[C@@H]1CCCN1C2=O`, the pIC50 in the experiment with P815 [1] was 7.59. Moreover, the values for the Activity (in the experiment on P815 [3]; in experiment [4]) were 21% and 16%, respectively. For the same molecule, the result in [5], in experiment [6] and in experiment [7] was Active.

`COc1cc2c(cc1OCCC(=O)Nc1ccc3oc(C(=O)Nc4cc(O)ccc4CCCl)cc3c1)N=C[C@@H]1CCCN1C2=O` gave a pIC50 in the experiment on P815 [1] of 6.25.

For `COc1cc2cc(C(=O)N3CC(CCl)c4c3cc(O)c3ccccc43)[nH]c2c(OC)c1OC` (stereo not given), in the experiment on P815 [1], the pIC50 was 8.07. The molecule `COC(=O)CCOc1cc2c(cc1OC)C(=O)N1CCC[C@H]1C=N2` gave a pIC50 in the experiment with P815 [1] of 4.26. The molecule also had an Activity in [8] of 4%. Further, in experiment [9], the result was inactive. In the experiment on P815 [1], `Nc1cc(NC(=O)c2cc3cc(NC(=O)Nc4ccc5oc(C(=O)Nc6cc(N)c7ccccc7c6CCCl)cc5c4)ccc3o2)c(CCCl)c2ccccc12` showed a negative-log IC50 (pIC50) of 4.38. Turning to `C=C1C[C@H]2C=Nc3cc(OCCCOc4cc5c(cc4OC)C(=O)N4CC(=C)C[C@H]4C=N5)c(OC)cc3C(=O)N2C1`, the outcome in [10] was Active.

By pIC50 is commonly meant the IC50 on a negative log10 scale, so that one unit is a factor of ten.
